From patent US7105679B2, “Heteroatom containing tetracyclic derivatives as selective estrogen receptor modulators” (priority 2001, dated 2006) come the findings set out here.

Molecules are shown by their SMILES. “And” between values parts separate entries of the source, which are not always exact repeats. Equal entries are not always repeated. Where two headings read alike, the source gives them in different places. Where only a bound is given, the exact number is not on record here.

The test system of assay [1] is Ishikawa cells. Kind of assay: Alkaline Phosphatase Assay in Human Endometrial Ishikawa Cells (agonist and antagonist mode). Format: cell-based. Conditions: antagonist mode with 10 nM 17β-estradiol, number in brackets = number of tests, NA = no detected activity at test concentration. As to the method:
This assay was run according to the procedure described by Albert et a., Cancer Res, […], 50(11), 330-6-10, with minor modification.
Ishikawa cells (from ATCC) were maintained in DMEM/F12 (1:1) phenol red free medium (Gibco) supplemented with 10% calf serum (Hyclone). 24 hours prior to testing, the medium was changed to DMEM/F12 (1:1) phenol red free containing 2% calf serum.
Compounds to be tested in the agonist mode were added to the culture media at varying concentrations. Compounds to be treated in the antagonist mode were prepared similarly, and 10 nM 17β-estradiol was also added to the culture media. The cells were then incubated at 37° C. for 3 days. On the fourth day, the media was remove, 1 volume of 1× Dilution Buffer (Clontech) was added to the well followed by addition of 1 volume of Assay Buffer (Clontech). The cells were then incubated at room temperature for 5 minutes. […] The cells were incubated at room temperature for 10 minutes and then quantified on a luminometer. The increase of chemiluminescence over vehicle control was used to calculate the increase in alkaline phosphatase activity.

In assay [2] the test system is MCF-7 cells. Kind of assay: MCF-7 Cell Proliferation Assay (14C-thymidine, agonist and antagonist mode). The assay is classed as cell-based. To be noted: number in brackets = number of tests, NA = no detected activity at test concentration. As to the method:
This assay was run according to the procedure described by Welshons, et al., (Breast Cancer Res. Treat., 1987, 10(2), 169-75), with minor modification.
Briefly, MCF-7 cells (from Dr. C. Jordan, Northwestern University) were maintained in RPMI 1640 phenol red free medium (Gibco) in 10% FBS (Hyclone), supplemented with bovine insulin and non-essential amino acid (Sigma). The cells were initially treated with 4-hydoxyltamoxifen (10^−8 M) and let stand at 37° C. for 24 hours. Following this incubation with tamoxifen, the cells were treated with compounds at various concentrations.
Compounds to be tested in the agonist mode were added to the culture media at varying concentrations. Compounds to be treated in the antagonist mode were prepared similarly, and 10 nM 17β-estradiol was also added to the culture media. The cells were incubated for 24 hours at 37° C. Following this incubation, 0.1 μCi of ^14C-thymidine (56 mCi/mmol, Amersham) was added to the culture media and the cells were incubated for an additional 24 hours at 37° C. The cells were then washed twice with Hank's buffered salt solution (HBSS) (Gibco) and counted with a scintillation counter. The increase in the ^14C-thymidine in the compound treated cells relative to the vehicle control cells were reported as percent increase in cell proliferation.

For assay [3], the target named is T1, human estrogen receptor α (Homo sapiens, UniProt P03372).
T1 construct: purchased Panvera
T1 sequence (P03372 1-595): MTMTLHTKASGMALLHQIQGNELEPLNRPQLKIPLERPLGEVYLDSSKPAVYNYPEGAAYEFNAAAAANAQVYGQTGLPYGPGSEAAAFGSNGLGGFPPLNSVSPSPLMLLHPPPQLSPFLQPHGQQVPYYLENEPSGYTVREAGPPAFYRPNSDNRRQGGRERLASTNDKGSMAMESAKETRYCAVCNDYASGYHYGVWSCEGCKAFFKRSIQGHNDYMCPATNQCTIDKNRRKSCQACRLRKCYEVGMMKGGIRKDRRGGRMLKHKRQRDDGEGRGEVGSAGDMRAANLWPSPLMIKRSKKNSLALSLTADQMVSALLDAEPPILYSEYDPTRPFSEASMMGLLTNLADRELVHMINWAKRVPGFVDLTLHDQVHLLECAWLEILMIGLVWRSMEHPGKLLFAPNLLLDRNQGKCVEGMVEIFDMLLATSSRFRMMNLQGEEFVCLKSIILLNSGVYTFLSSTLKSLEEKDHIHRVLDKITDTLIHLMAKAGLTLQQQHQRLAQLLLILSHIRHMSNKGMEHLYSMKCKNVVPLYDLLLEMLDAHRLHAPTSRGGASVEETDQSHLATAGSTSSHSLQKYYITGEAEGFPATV
As to the kind of experiment: Estrogen Receptor α Flash Plate Assay (binding of radiolabeled estrogen). As to the method: This assay monitors binding of radiolabeled estrogen to the estrogen receptor. It is performed on a BioMek 2000 (Beckman). Plates are read in a scintillation counter (Packard TopCount), with decreased counts an indication of binding of a compound to the receptor.
The plate was sealed and incubated at 4° C. overnight.
On day two, each well was washed three times with 200 μL PBS, pH 7.2, at room temperature. To each well was then added 98 μL radiolabeled estrogen (0.5 nM, which equals 6 nCi for a 120 Ci/mmol batch, Amersham), diluted in ESB and 5 mM dithiothreitol (DTT). To individual wells were then added 2.5 μL test compound diluted in 30% (v/v) dimethyl sulfoxide/50 mM HEPES, pH 7.5. The wells were mixed three times by aspiration, the plate sealed and incubated at room temperature for one hour. The wells were then counted for 1 min in a TopCount scintillation counter (Packard).

Where [4] appears, read: Homo sapiens, MCF7, antagonist mode with 10 nM 17β-estradiol.
[5] abbreviates: antagonist mode with 10 nM 17β-estradiol.
Setting [6] is: flash plate binding, 0.5 nM radiolabeled estrogen, number in brackets = No. of determinations, NA = no detected activity at test concentration, read-out: Estrogen Receptor α in μM (No.).

Regarding `Oc1ccc2c(c1)OC(c1ccc(OCCN3CCCCC3)cc1)C1=C2CCOc2cc(O)ccc21` (single isomer, unassigned) [Compound 100, 5S*-(−)-[4-(2-Piperidin-1-yl-ethoxy)-phenyl]-11,12-dihydro-5H-6,13-dioxa-benzo[3,4]cyclohepta[1,2-a]naphthalene-2,8-diol], the IC50 was 19 nM in assay [1] (Homo sapiens), 75 nM in assay [2] (setting [4]) and 0.0026 µM in assay [3].
With `Oc1ccc2c(c1)OC(c1ccc(OCCN3CCCCC3)cc1)C1=C2CCOc2ccccc21` (single isomer, unassigned) [Compound 131], the IC50 in assay [1] was 4940 nM; in assay [2] (setting [5]), > 10000 nM; in assay [3] (setting [6]), 0.061 µM.
As for `Oc1ccc2c(c1)OC(c1ccc(OCCN3CCCCC3)cc1)C1=C2CCOc2ccccc21` (single isomer, unassigned) [Compound 132], the IC50 was 548 nM in assay [1], 1280 nM in assay [2] (setting [5]) and 0.0048 µM in assay [3] (setting [6]).
For `CN(C)CCOc1ccc(C2Oc3cc(O)ccc3C3=C2c2ccccc2OCC3)cc1` (single isomer, unassigned) [Compound 147], the IC50 was > 10000 nM in assay [1], > 10000 nM in assay [2] (setting [5]) and 0.18 µM in assay [3] (setting [6]).
Take `CN(C)CCOc1ccc(C2Oc3cc(O)ccc3C3=C2c2ccccc2OCC3)cc1` (single isomer, unassigned) [Compound 149]: the results for the IC50 in assay [1], in assay [2] (setting [5]) and in assay [3] (setting [6]) were 1020 nM, 1360 nM and 0.015 µM, respectively.
As to `Oc1ccc2c(c1)OCCC1=C2C(c2ccc(OCCN3CCCCCC3)cc2)Oc2ccccc21` (single isomer, unassigned) [Compound 152], the IC50 in assay [1] stood at 324 nM; in assay [2] (setting [5]), 2610 nM; in assay [3] (setting [6]), 0.0086 µM.
Take `Oc1ccc2c(c1)OCCC1=C2C(c2ccc(OCCN3CCCCCC3)cc2)Oc2ccccc21` (single isomer, unassigned) [Compound 153]: the values for the IC50 in assay [1], in assay [2] (setting [5]) and in assay [3] (setting [6]) were 509 nM, 1270 nM and 0.0066 µM, respectively.
The matching figures for `Oc1ccc2c(c1)OC(c1ccc(OCCN3CCCCCC3)cc1)C1=C2CCOc2ccccc21` (single isomer, unassigned) [Compound 154]: 167 nM, 1440 nM and 0.0042 µM.
Consider `Oc1ccc2c(c1)OC(c1ccc(OCCN3CCCCCC3)cc1)C1=C2CCOc2ccccc21` (single isomer, unassigned) [Compound 155], for which the IC50 is 3770 nM in assay [1], > 10000 nM in assay [2] (setting [5]) and 0.088 µM in assay [3] (setting [6]).
Turning to `CC(C)N(CCOc1ccc(C2Oc3cc(O)ccc3C3=C2c2ccc(O)cc2OCC3)cc1)C(C)C` (single isomer, unassigned) [Compound 167], the IC50 in assay [1] was 35 nM; in assay [2] (setting [5]), 424 nM; in assay [3] (setting [6]), 0.007 µM.
The matching figures for `CC(C)N(CCOc1ccc(C2Oc3cc(O)ccc3C3=C2c2ccc(O)cc2OCC3)cc1)C(C)C` (single isomer, unassigned) [Compound 168]: 287 nM, 220 nM and 0.0042 µM.
For `c1ccc2c(c1)OC(c1ccc(OCCN3CCCCC3)cc1)C1=C2COc2ccccc21` (single isomer, unassigned) [Compound 170, 5R*-(−)-1-{2-[4-(5,11-Dihydro-chromeno[4,3-c]chromen-5-yl)-phenoxy]-ethyl}-piperidine], the values for the IC50 in assay [1], in assay [2] (setting [5]) and in assay [3] (setting [6]) were 2660 nM, ≥ 10000 nM and 0.16 µM, respectively.
Take `CC(C)(C)C(=O)Oc1ccc2c(c1)OCC1=C2C(c2ccc(OCCN3CCCCC3)cc2)Oc2ccccc21` (single isomer, unassigned) [Compound 171, 2,2-Dimethyl-propionic acid 5S*-(+)-[4-(2-piperidin-1-yl-ethoxy)-phenyl]-5,11-dihydro-chromeno[4,3-c]chromen-2-yl ester]: the IC50 in assay [1] (Homo sapiens) was 56.7 nM; in assay [2] (setting [5]), 5100 nM; in assay [3] (setting [6]) it was 0.14 µM.
`CC(C)(C)C(=O)Oc1ccc2c(c1)OCC1=C2C(c2ccc(OCCN3CCCCC3)cc2)Oc2ccccc21` (single isomer, unassigned) [Compound 172, 2,2-Dimethyl-propionic acid 5R*-(−)-[4-(2-piperidin-1-yl-ethoxy)-phenyl]-5,11-dihydro-chromeno[4,3-c]chromen-2-yl ester]: the IC50 in assay [1] turned out to be 68.4 nM; in assay [2] (setting [5]) it was 2280 nM; in assay [3] (setting [6]) it was 0.26 µM.
As to `COc1ccc2c(c1)O[C@@H](c1ccc(OCCN3CCCCC3)cc1)C1=C2COc2cc(OC)ccc21` (single isomer, unassigned) [Compound 173, 5S*-(+)-1-{2-[4-(2,8-Dimethoxy-5,11-dihydro-chromeno[4,3-c]chromen-5-yl)-phenoxy]-ethyl}-piperidine], the IC50 in assay [1] (Homo sapiens) is > 10000 nM; in assay [2] (setting [4]), > 10000 nM; in assay [3] (setting [6]), 0.17 µM.
Consider `COc1ccc2c(c1)OCC1=C2C(c2ccc(OCCN3CCCCC3)cc2)Oc2cc(OC(=O)C(C)(C)C)ccc21` (single isomer, unassigned) [Compound 175], for which the IC50 is 300 nM in assay [1] (Homo sapiens), 5000 nM in assay [2] (setting [4]) and 0.66 µM in assay [3] (setting [6]).
Consider `Oc1ccc2c(c1)OCCC1=C2C(c2ccc(OCCN3CCCCCC3)cc2)Oc2cc(F)ccc21` (single isomer, unassigned) [Compound 177], for which the IC50 in assay [1] is 259 nM; in assay [2] (setting [5]) it was 3000 nM; in assay [3] (setting [6]), 0.04 µM.
With `Oc1ccc2c(c1)OCCC1=C2C(c2ccc(OCCN3CCCCCC3)cc2)Oc2cc(F)ccc21` (single isomer, unassigned) [Compound 178], the IC50 is 125 nM in assay [1]; 1480 nM in assay [2] (setting [5]); 0.0064 µM and 0.0076 µM in assay [3] (setting [6]).
In the case of `COc1ccc2c(c1)OCC1=C2[C@H](c2ccc(OCCN3CCCCC3)cc2)Oc2cc(O)ccc21` (single isomer, unassigned) [Compound 181, 8-Methoxy-11S*(−)-[4-(2-piperidin-1-yl-ethoxy)-phenyl]-5,11-dihydro-chromeno[4,3-c]chromen-2-ol], the IC50 in assay [1] (Homo sapiens) stood at 34 nM; in assay [2] (setting [4]), 1340 nM; in assay [3] (setting [6]), 0.0011 µM.
In the case of `COc1ccc2c(c1)OCCC1=C2C(c2ccc(OCCN3CCCCC3)cc2)Oc2cc(O)ccc21` (single isomer, unassigned) [Compound 196, 2-Methoxy-5S*-(−)-[4-(2-piperidin-1-yl-ethoxy)-phenyl]-11,12-dihydro-5H-6,13-dioxa-benzo[3,4]cyclohepta[1,2-a]naphthalen-8-ol], the IC50 in assay [1] is 229 nM; in assay [2] (setting [5]) it was > 1000 nM; in assay [3] (setting [6]), 0.055 µM.
